Values joined by “and” are separate entries in the source; they are usually repeats but may differ in a detail not shown here. Identical values can stand only once. Some results are limits rather than exact numbers.

As usually defined, the melting point is the temperature, or range, at which the solid turns liquid.

Data set [1] deals with T1, Rat2 fibroblasts transformed with v-Src/Hu c-Src fusion gene (Homo sapiens, UniProt P12931, cells depend on it, form not given).
T1 construct: fused on or other part: The v-Src frame of Rous sarcoma virus: everything outside the catalytic domain, namely the N-terminal unique/SH3/SH2 part; Candidates are Prague C (P00526), then Schmidt-Ruppin A (P00524)
T1 sequence (P12931 whole entry, change not shown, the tested form may be a part): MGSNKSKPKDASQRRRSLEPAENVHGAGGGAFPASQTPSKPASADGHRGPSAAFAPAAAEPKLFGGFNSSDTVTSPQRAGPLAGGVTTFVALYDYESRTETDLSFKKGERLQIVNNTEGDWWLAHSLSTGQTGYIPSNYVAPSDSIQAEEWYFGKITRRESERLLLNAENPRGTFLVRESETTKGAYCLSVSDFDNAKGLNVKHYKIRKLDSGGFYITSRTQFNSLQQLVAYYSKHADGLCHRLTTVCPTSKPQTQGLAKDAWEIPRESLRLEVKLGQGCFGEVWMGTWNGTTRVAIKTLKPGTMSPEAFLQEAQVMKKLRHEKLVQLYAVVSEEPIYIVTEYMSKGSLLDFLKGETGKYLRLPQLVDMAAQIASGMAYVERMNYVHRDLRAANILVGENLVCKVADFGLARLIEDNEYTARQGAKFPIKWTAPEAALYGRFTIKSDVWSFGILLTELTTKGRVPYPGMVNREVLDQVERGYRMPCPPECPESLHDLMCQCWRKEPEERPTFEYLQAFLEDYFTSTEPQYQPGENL
The data set can be described thus: Anchorage independent Src-transformed fibroblast proliferation test procedure. The class given is cell-based, rat. To be noted: rat2 fibroblasts transformed with v-src/hu c-src fusion gene; read-out: Src TF prolif IC50. The text has this:
Anchorage Independent Src-transformed Fibroblast Proliferation Test Procedure: Rat2 fibroblasts stably transformed with a plasmid containing CMV promotor controlled v-Src/Hu c-Src fusion gene in which the catalytic domain of human c-Src is inserted in place of the v-Src catalytic domain in the v-Src gene are used for the measurement of src dependent suspension growth.

Compound `COc1cc(Nc2c(C#N)cnc3cc4cc(OCCN5CCN(C)CC5)c(OC)cc4cc23)c(Cl)cc1F` [Example 211, 4-(2-Chloro-4-fluoro-5-methoxyanilino)-7-methoxy-8-[2-(4-methyl-1-piperazinyl)ethoxy]benzo[g]quinoline-3-carbonitrile] gave a melting point of 197 to 205 °C. The GI50 in data set [1] came to 0.128 µM.
Consider `COc1cc(Nc2c(C#N)cnc3cc4cc(OC)c(OCCN5CCC(O)CC5)cc4cc23)c(Cl)cc1C` [Example 207, 4-(2-Chloro-5-methoxy-4-methylanilino)-8-methoxy-7-[2-(4-hydroxy-1-piperidinyl)ethoxy]benzo[g]quinoline-3-carbonitrile], for which the melting point lay in the range of 205 to 235 °C. Moreover, the GI50 in data set [1] was found to be 0.929 µM.
In the case of `COc1cc(Nc2c(C#N)cnc3cc4cc(OCCn5nccn5)c(OC)cc4cc23)c(Cl)cc1Cl` [Example 158, 4-(2,4-Dichloro-5-methoxyphenylamino)-7-methoxy-8-(2-[1,2,3]triazol-2-yl-ethoxy)benzo[g]quinoline-3-carbonitrile], the GI50 in data set [1] stood at 0.067 µM.
As for `COc1cc(Nc2c(C#N)cnc3cc4cc(OCCn5ccnn5)c(OC)cc4cc23)c(Cl)cc1Cl` [Example 159, 4-(2,4-Dichloro-5-methoxyphenylamino)-7-methoxy-8-(2-[1,2,3]triazol-1-yl-ethoxy)benzo[g]quinoline-3-carbonitrile], the melting point was 245 °C (dec.). In addition, in data set [1], the GI50 came to 0.073 µM.
`CCOc1cc2cc3ncc(C#N)c(Nc4cc(OC)c(Cl)cc4C)c3cc2cc1OCCN1CCOCC1` [Example 190, 4-(4-Chloro-5-methoxy-2-methylanilino)-8-ethoxy-7-[2-(4-morpholinyl)ethoxy]benzo[g]quinoline-3-carbonitrile] came in with a melting point of 195 to 196 °C. The GI50 in data set [1] was found to be 0.17 µM.
Turning to `COc1cc(Nc2c(C#N)cnc3cc4cc(OC)c(OCCN5CCN(C)CC5)cc4cc23)c(Cl)cc1C` [Example 202, 4-(2-Chloro-5-methoxy-4-methylanilino)-8-methoxy-7-[2-(4-methyl 1-piperazinyl)ethoxy]benzo[g]quinoline-3-carbonitrile], the melting point is 218 to 235 °C and 220 to 227 °C. Besides, the GI50 in data set [1] turned out to be 0.068 µM.
On to `COc1cc2cc3c(Nc4ccc(Cl)cc4Cl)c(C#N)cnc3nc2cc1OC` [Example 177, 4-(2,4-Dichloroanilino)-7,8-dimethoxybenzo[b][1,8]naphthyridine-3-carbonitrile], for which the melting point is 266 to 270 °C (dec.).
`COc1cc2cc3c(Nc4ccc(Sc5nccn5C)c(Cl)c4)c(C#N)cnc3cc2cc1OCCCN1CCOCC1` [Example 151, 4-[3-Chloro-4-(1-methyl-1H-imidazol-2-ylsulfanyl)phenylamino]-7-methoxy-8-(3-morpholin-4-yl-propoxy)benzo[g]quinoline-3-carbonitrile] had a melting point of 230 to 235 °C.
`CCOC(=O)CN(CCOc1cc2cc3c(Nc4cc(OC)c(Cl)cc4C)c(C#N)cnc3cc2cc1OCC)CC(=O)OCC` [Example 192, ({2[4-(4-Chloro-5-methoxy-2-methylphenylamino)-3-cyano-8-ethoxybenzo[g]quinoline-7-yloxy]-ethyl}-ethoxycarbonylmethyl-amino)-acetic acid ethyl ester] gave a melting point of 70 to 71 °C.
For the compound `COc1cc(Nc2c(C#N)cnc3cc4cc(OC)c(OCCN5CCOCC5)cc4cc23)c(Cl)cc1C`, the melting point lay within 240 to 241 °C.
Turning to `COc1cc2cc3c(Nc4ccc(Sc5nccn5C)c(Cl)c4)c(C#N)cnc3nc2cc1OCCCl` [Example 174, 8-(2-Chloroethoxy)-4-{3-chloro-4-[(1-methyl-1H-imidazol-2-yl)sulfanyl]anilino}-7-methoxybenzo[b][1,8]naphthyridine-3-carbonitrile], the melting point is > 250 °C (dec.).
The compound `COc1cc2cc3c(Nc4cc(OC)c(Cl)cc4Cl)c(C#N)cnc3cc2cc1O` [Example 155, 4-(2,4-Dichloro-5-methoxyphenylamino)-8-hydroxy-7-methoxybenzo[g]quinoline-3-carbonitrile] had a melting point of 238 to 240 °C.
Take `COc1cc(Nc2c(C#N)cnc3c2sc2ccccc23)c(Cl)cc1Cl` [Example 68, 4-(2,4-Dichloro-5-methoxyphenylamino)benzo[4,5]thieno[3,2-b]pyridine-3-carbonitrile]: the melting point lay in the range of 234 to 236 °C.
The same measure, in the same setting: to `COc1cc2cc3c(Nc4cc(OC)c(F)cc4Cl)c(C#N)cnc3cc2cc1O` [Example 220, 4-[(2-Chloro-4-fluoro-5-methoxyphenyl)amino]-8-hydroxy-7-methoxybenzo[g]quinoline-3-carbonitrile] belongs 239 to 242 °C (dec.).
With `COc1cc(Nc2c(C#N)cnc3cc4cc(OCCCl)c(OC)cc4cc23)c(Cl)cc1F` [Example 180, 8-(2-Chloroethoxy)-4-(2-chloro-4-fluoro-5-methoxyanilino)-7-methoxybenzo[g]quinoline-3-carbonitrile], the melting point lay in the range of 193 to 204 °C.
For the compound `N#Cc1cnc2c(oc3ccccc32)c1Nc1ccc(Oc2ccccc2)cc1` [Example 88, 4-(4-Phenoxyphenylamino)benzo[4,5]furo[3,2-b]pyridine-3-carbonitrile], the melting point is 175 to 179 °C.
In turn, `COc1cc(Nc2c(C#N)cnc3cc4cc(OCCN5CCOCC5)c(OC)cc4cc23)c(Cl)cc1F` showed a melting point of 206 to 222 °C.
On the same count and under the same terms, with `COc1cc2cc3c(Nc4ccc(Sc5nccn5C)c(Cl)c4)c(C#N)cnc3cc2cc1OCCN1CCOCC1` [Example 149] the figure was over 300 °C.
In turn, `N#Cc1cnc2c(sc3ccc([N+](=O)[O-])cc32)c1Nc1ccc(Cl)cc1Cl` [Example 90, 4-(2,4-Dichloroanilino)-8-nitro[1]benzothieno[3,2-b]pyridine-3-carbonitrile] registered a melting point of 210 to 213 °C.
Regarding `Cc1ccc(Nc2c(C#N)cnc3c2sc2ccccc23)cc1O` [Example 70, 4-(3-Hydroxy-4-methylphenylamino)benzo[4,5]thieno[3,2-b]pyridine-3-carbonitrile], the melting point was 260 °C (dec.).
Compound `COc1cc(Nc2c(C#N)cnc3cc4cc(OCCN5CCC(O)CC5)c(OC)cc4cc23)c(Cl)cc1Cl` registered a melting point of 193 to 198 °C.
Consider `COc1cc(Nc2c(C#N)cnc3cc4cc(OCCN5CCOCC5)c(OC)cc4cc23)c(Cl)cc1Cl` [Example 129, 4-(2,4-dichloro-5-methoxyanilino)-7-methoxy-8-[2-(4-morpholinyl)ethoxy]benzo[g]quinoline-3-carbonitrile], for which the GI50 in data set [1] was 0.015 µM.
On to `COc1cc2cc3c(Nc4ccc(Sc5nccn5C)c(Cl)c4)c(C#N)cnc3nc2cc1OCCN1CCOCC1` [Example 176, 4-{3-Chloro-4-[(1-methyl-1H-imidazol-2-yl)sulfanyl]anilino}-7-methoxy-8-[2-(4-morpholinyl)ethoxy]benzo[b][1,8]naphthyridine-3-carbonitrile], for which the melting point was 160 to 162 °C (dec.).
On the same count and under the same terms, with `CCOC(=O)CN(CCOc1cc2cc3ncc(C#N)c(Nc4cc(OC)c(Cl)cc4C)c3cc2cc1OCC)CC(=O)OCC` [Example 193, ({2-[4-(4-Chloro-5-methoxy-2-methylphenylamino)-3-cyano-7-ethoxybenzo[g]quinoline-8-yloxy]-ethyl}-ethoxycarbonylmethylamino)-acetic acid ethyl ester] the figure was 85 to 86 °C.

Values taken from patent US7105531B2, “Tricyclic protein kinase inhibitors” (WYETH, priority 1999, dated 2006).
